SMILES	melting point
CCOC(=O)c1c(I)c(NC(C)=O)c(I)c(NC(C)=O)c1I [NC 8883, Ethyl 3,5-diacetamido-2,4,6-triiodobenzoate]	280 to 290 °C (dec.)
CCOC(=O)COC(=O)c1c(I)c(NC(C)=O)c(I)c(NC(C)=O)c1I [NC 12901, Ethyl (3,5-diacetamido-2,4,6-triiodobenzoyloxy)acetate]	269.5 to 270.5 °C (dec.)
